Assay results: ChEMBL document CHEMBL3137667, “[Drug-induced liver injury; fourteenth updated edition of the bibliographic database of liver injuries and related drugs]” (Gastroenterol Clin Biol, 2004)

Key:
[1] = human
[2] = human; remark: listed apart in the source
[3] = human; remark: listed apart in the source
[4] = human; remark: listed apart in the source
[5] = human; remark: listed apart in the source
[6] = Highest frequency of moderate liver toxicity observed during clinical trials, expressed as a percentage. [column '% BIOL' in source]; conditions: human
[7] = human, serum, 4383 h
[8] = human; remark: listed apart in the source
[9] = Highest frequency of acute liver toxicity observed during clinical trials, expressed as a percentage. [column '% AIGUE' in source]; conditions: human
[10] = human, serum
[11] = human; remark: listed apart in the source
[12] = human; remark: listed apart in the source
[13] = human, serum; remark: listed apart in the source
[14] = human; remark: listed apart in the source
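Wherever Hepatotoxicity (association with vascular disease) is given: count of indexed literature references reporting vascular liver injury in humans, e.g. peliosis hepatitis, hepatic veno-occlusive disease or Budd-Chiari syndrome.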
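Wherever Hepatotoxicity (benign tumour) is given: value is a count of indexed literature references citing a benign tumour confirmed by histopathology.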
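Wherever Hepatotoxicity (choleostasis) is given: human cholestatic liver injury, shown by histopathology or by peak ALT or AST elevation over alkaline phosphatase ratio below 2, value counts indexed literature reports.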
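Wherever Hepatotoxicity (chronic liver disease) is given: chronic liver injury confirmed by histopathology or persistently raised serum aminotransferase activity beyond 6 months, value given as the count of indexed literature references.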
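Wherever Hepatotoxicity (cirrhosis) is given: value is a count of indexed literature references reporting cirrhosis confirmed by histopathology.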
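Wherever Hepatotoxicity (cytolytic) is given: human cytolytic liver injury, shown by histopathology or by a ratio above 5 of peak ALT or AST elevation to alkaline phosphatase elevation, value counts indexed references.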
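Wherever Hepatotoxicity (granulomatous hepatitis) is given: value is a count of indexed literature references reporting granulomatous liver disease confirmed by histopathology.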
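Wherever Hepatotoxicity (malignant tumour) is given: malignant tumour confirmed by histopathology, value gives the count of indexed literature references reporting it.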
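Wherever Hepatotoxicity (severe hepatitis) is given: human clinical data: severe hepatitis, meaning potentially life-threatening liver failure or clinically observed cases, the value counts how many indexed literature references report it.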
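Wherever Hepatotoxicity (steatosis) is given: steatosis confirmed by histopathology, value is the count of indexed references.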

SMILES | Hepatotoxicity (association with vascular disease) [1] | Hepatotoxicity (granulomatous hepatitis) [2] | Hepatotoxicity (severe hepatitis) [3] | Hepatotoxicity (cirrhosis) [4] | Hepatotoxicity (malignant tumour) [5] | Hepatotoxicity (moderate) [6] | Hepatotoxicity (chronic liver disease) [7] | Hepatotoxicity (cytolytic) [8] | Hepatotoxicity (acute) [9] | Hepatotoxicity (acute) [10] | Hepatotoxicity (choleostasis) [11] | Hepatotoxicity (benign tumour) [12] | Hepatotoxicity (moderate) [13] | Hepatotoxicity (steatosis) [14] | Hepatotoxicity (granulomatous hepatitis) ([2]; Liver) | Hepatotoxicity (severe hepatitis) ([3]; Liver) | Hepatotoxicity (moderate) ([6]; Liver) | Hepatotoxicity (cytolytic) ([8]; Liver) | Hepatotoxicity (acute) ([9]; Liver) | Hepatotoxicity (choleostasis) ([11]; Liver)
CC#CCC(C)[C@H](O)/C=C/[C@@H]1[C@H]2c3cccc(CCCC(=O)O)c3O[C@H]2C[C@H]1O (stereo not given in full) [BERAPROST] | 0 | 0 | 0 | 0 | 0 | 13% | 0 | 0 | 0% | 0 | 0 | 0 | 1 | 0 |  |  |  |  |  | 
C[C@H]1C[C@H]2[C@@H]3CCC4=CC(=O)C=C[C@]4(C)[C@@]3(F)[C@@H](O)C[C@]2(C)[C@@]1(O)C(=O)CO [BETAMETHASONE] | 0 | 0 | 0 | 0 | 0 | 0% | 0 | 0 | 0% | 0 | 0 | 0 | 0 | 1 |  |  |  |  |  | 
C[C@@H](O)[C@H]1C(=O)N2C(C(=O)[O-])=C(SC3Cn4cnc[n+]4C3)[C@H](C)[C@H]12 (stereo not given in full) [BIAPENEM] | 0 | 0 | 0 | 0 | 0 | 40% | 0 | 0 | 0% | 0 | 0 | 0 | 56 | 0 |  |  |  |  |  | 
C(=N\NC1=NCCN1)/c1c2ccccc2c(/C=N/NC2=NCCN2)c2ccccc12 [BISANTRENE] | 0 | 0 | 0 | 0 | 0 | 49% | 0 | 0 | 0% | 1 | 1 | 0 | 4 | 0 |  |  |  |  |  | 
CC(C)NCC(O)COc1ccc(COCCOC(C)C)cc1 (stereo not given) [BISOPROLOL] | 0 | 0 | 0 | 0 | 0 | 7.1% | 0 | 0 | 0% | 0 | 0 | 0 | 3 | 0 |  |  |  |  |  | 
CN(Cc1cc(Br)cc(Br)c1N)C1CCCCC1 [BROMHEXINE] | 0 | 0 | 0 | 0 | 0 | 0% | 0 | 0 | 0% | 0 | 0 | 0 | 1 | 0 |  |  |  |  |  | 
Nc1nc(-c2ccccc2)c(Br)c(=O)[nH]1 [BROPIRIMINE] | 0 |  |  | 0 | 0 |  | 0 |  |  | 0 |  | 0 | 1 | 0 | 0 | 0 | 3.1% | 0 | 0% | 0
CCC/C=C/C=C/C(=O)O[C@H]1/C(=C/C(=O)OC)C[C@H]2C[C@H]([C@@H](C)O)OC(=O)C[C@H](O)C[C@@H]3C[C@H](OC(C)=O)C(C)(C)[C@](O)(C[C@@H]4C/C(=C/C(=O)OC)C[C@H](/C=C/C(C)(C)[C@]1(O)O2)O4)O3 [BRYOSTATIN 1] | 0 | 0 | 0 | 0 | 0 | 16.7% | 0 | 0 | 8.3% | 1 | 1 | 0 | 2 | 0 |  |  |  |  |  | 
CC(C)C[C@H](NC(=O)[C@H](CCCCN)NC(=O)CNC(=O)[C@H](CC(C)C)NC(=O)[C@@H](NC(=O)[C@@H]1CSSC[C@H](N)C(=O)N[C@@H](CO)C(=O)N[C@@H](CC(N)=O)C(=O)N[C@@H](CC(C)C)C(=O)N[C@@H](CO)C(=O)N[C@@H]([C@@H](C)O)C(=O)N1)C(C)C)C(=O)N[C@@H](CO)C(=O)N[C@@H](CCC(N)=O)C(=O)N[C@@H](CCC(=O)O)C(=O)N[C@@H](CC(C)C)C(=O)N[C@@H](Cc1c[nH]cn1)C(=O)N[C@@H](CCCCN)C(=O)N[C@@H](CC(C)C)C(=O)N[C@@H](CCC(N)=O)C(=O)N[C@H](C(=O)N[C@@H](Cc1ccc(O)cc1)C(=O)N1CCC[C@H]1C(=O)N[C@@H](CCCNC(=N)N)C(=O)N[C@H](C(=O)N[C@@H](CC(N)=O)C(=O)N[C@H](C(=O)NCC(=O)N[C@@H](CO)C(=O)NCC(=O)N[C@H](C(=O)N1CCC[C@H]1C(N)=O)[C@@H](C)O)[C@@H](C)O)[C@@H](C)O)[C@@H](C)O [CALCITONIN SALMON] | 0 | 0 | 0 | 0 | 0 | 3.1% | 0 | 0 | 0% | 0 | 0 | 0 | 1 | 0 |  |  |  |  |  | 
CCCCCOC(=O)Nc1nc(=O)n([C@@H]2O[C@H](C)[C@@H](O)[C@H]2O)cc1F [CAPECITABINE] | 0 | 0 | 0 | 0 | 0 | 61.8% | 0 | 0 | 0% | 0 | 0 | 0 | 1 | 0 |  |  |  |  |  | 
